The text below walks through data of publication PMC5428509, “Irreversible inhibition of BTK kinase by a novel highly selective inhibitor CHMFL-BTK-11 suppresses inflammatory response in rheumatoid arthritis model” (Scientific Reports, 2017).

Common to all, as to assay: biochemical
What all share (design): KinomeScan competition binding panel (DiscoveRx), percent of control at 1 uM
Holding throughout (conditions): read-out: Percent Control

One assay concerns the target LRRK2(G2019S) (Homo sapiens, UniProt Q5S007, G2019S). Put shortly:
(§1)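 Selectivity profiled across 456 kinases/mutants by KinomeScan binding technology.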

The target in assay [1] is T1, RSK1(Kin.Dom.2-C-terminal) (Homo sapiens, UniProt Q15418).
T1 construct: gene RPS6KA1; Kin.Dom.2-C-terminal
Put shortly:
as §1

The target in a further assay is CAMK4 (Homo sapiens, UniProt Q16566). Put shortly: as §1
In another assay the target is FLT3 (Homo sapiens, UniProt P36888). Put shortly: as §1
For the next assay, the target named is PLK4 (Homo sapiens, UniProt O00444). Put shortly:
as §1

The target of the next assay is T2, QSK (Homo sapiens, UniProt Q9Y2K2).
T2 construct: gene SIK3
Put shortly: as §1

Another assay deals with RET(V804L) (Homo sapiens, UniProt P07949, V804L). Put shortly:
as §1

A further assay deals with ROCK1 (Homo sapiens, UniProt Q13464). Put shortly: as §1
A further assay deals with IRAK3 (Homo sapiens, UniProt Q9Y616). Put shortly:
as §1

A further assay addresses T3, DCAMKL3 (Homo sapiens, UniProt Q9C098).
T3 construct: gene DCLK3
Put shortly:
as §1

Assay [2] has as its target T4, RPS6KA4(Kin.Dom.2-C-terminal) (Homo sapiens, UniProt O75676).
T4 construct: Kin.Dom.2-C-terminal
Put shortly:
as §1

Another assay deals with EGFR(L861Q) (Homo sapiens, UniProt P00533, L861Q). Put shortly:
as §1

The target in a further assay is DAPK3 (Homo sapiens, UniProt O43293). Put shortly: as §1
Another assay addresses CIT (Homo sapiens, UniProt O14578). Put shortly: as §1
A further assay deals with PRKCQ (Homo sapiens, UniProt Q04759). Put shortly: as §1
The next assay has as its target DAPK2 (Homo sapiens, UniProt Q9UIK4). Put shortly: as §1
Assay [3] has as its target T5, ABL1(F317I)-phosphorylated (Homo sapiens, UniProt P00519, F317I).
T5 construct: phosphorylated
Put shortly:
as §1

In another assay the target is NEK5 (Homo sapiens, UniProt Q6P3R8). Put shortly: as §1
For another assay, the target named is PKN1 (Homo sapiens, UniProt Q16512). Put shortly:
as §1

In a further assay the target is T6, SgK110 (Homo sapiens, UniProt P0C264).
T6 construct: gene SBK3
Put shortly: as §1

The target in a further assay is EGFR(L858R) (Homo sapiens, UniProt P00533, L858R). Put shortly: as §1
For the next assay, the target named is RET(V804M) (Homo sapiens, UniProt P07949, V804M). Put shortly:
as §1

The target of another assay is MARK2 (Homo sapiens, UniProt Q7KZI7). Put shortly: as §1
The target in the next assay is BRAF(V600E) (Homo sapiens, UniProt P15056, V600E). Put shortly: as §1

T1 sequence (Q15418 whole entry): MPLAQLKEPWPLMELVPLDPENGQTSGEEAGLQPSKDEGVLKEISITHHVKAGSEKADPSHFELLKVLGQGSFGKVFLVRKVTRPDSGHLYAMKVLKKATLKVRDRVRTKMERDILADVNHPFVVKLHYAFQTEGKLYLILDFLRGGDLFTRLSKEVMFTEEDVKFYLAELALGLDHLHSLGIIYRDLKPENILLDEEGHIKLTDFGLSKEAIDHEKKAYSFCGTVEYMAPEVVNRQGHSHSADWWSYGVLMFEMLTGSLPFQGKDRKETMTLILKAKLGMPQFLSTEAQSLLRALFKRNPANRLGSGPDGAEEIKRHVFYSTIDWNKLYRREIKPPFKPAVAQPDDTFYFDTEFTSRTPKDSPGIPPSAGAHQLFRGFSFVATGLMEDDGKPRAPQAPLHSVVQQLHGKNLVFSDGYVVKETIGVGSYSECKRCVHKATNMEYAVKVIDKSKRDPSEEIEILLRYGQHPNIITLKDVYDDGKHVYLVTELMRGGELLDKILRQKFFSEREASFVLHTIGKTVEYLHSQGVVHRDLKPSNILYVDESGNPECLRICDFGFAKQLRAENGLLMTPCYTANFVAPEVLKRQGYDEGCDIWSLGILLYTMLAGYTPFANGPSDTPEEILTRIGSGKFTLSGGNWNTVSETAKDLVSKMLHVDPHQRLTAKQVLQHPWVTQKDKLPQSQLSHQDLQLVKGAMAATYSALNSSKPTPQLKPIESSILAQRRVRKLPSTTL
Chain of NEK5 (Q6P3R8 whole entry): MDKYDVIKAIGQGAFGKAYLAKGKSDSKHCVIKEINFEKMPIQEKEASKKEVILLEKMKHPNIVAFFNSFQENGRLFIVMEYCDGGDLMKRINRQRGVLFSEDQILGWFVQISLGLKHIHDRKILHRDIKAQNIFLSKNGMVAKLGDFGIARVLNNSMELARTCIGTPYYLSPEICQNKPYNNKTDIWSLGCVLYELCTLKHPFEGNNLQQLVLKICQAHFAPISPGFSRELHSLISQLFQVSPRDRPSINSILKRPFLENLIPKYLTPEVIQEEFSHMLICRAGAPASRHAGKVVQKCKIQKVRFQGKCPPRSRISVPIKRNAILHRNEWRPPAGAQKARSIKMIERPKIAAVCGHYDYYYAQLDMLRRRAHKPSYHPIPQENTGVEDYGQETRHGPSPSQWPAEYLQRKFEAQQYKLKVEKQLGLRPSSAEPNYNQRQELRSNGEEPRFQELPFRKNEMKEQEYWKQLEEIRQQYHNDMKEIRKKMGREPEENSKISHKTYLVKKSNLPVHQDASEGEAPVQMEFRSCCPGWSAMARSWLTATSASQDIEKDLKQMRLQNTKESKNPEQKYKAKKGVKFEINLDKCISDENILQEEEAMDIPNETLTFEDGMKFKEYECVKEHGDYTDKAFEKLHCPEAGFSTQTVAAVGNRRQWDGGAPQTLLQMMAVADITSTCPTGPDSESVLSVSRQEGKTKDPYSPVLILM
Chain of IRAK3 (Q9Y616 whole entry): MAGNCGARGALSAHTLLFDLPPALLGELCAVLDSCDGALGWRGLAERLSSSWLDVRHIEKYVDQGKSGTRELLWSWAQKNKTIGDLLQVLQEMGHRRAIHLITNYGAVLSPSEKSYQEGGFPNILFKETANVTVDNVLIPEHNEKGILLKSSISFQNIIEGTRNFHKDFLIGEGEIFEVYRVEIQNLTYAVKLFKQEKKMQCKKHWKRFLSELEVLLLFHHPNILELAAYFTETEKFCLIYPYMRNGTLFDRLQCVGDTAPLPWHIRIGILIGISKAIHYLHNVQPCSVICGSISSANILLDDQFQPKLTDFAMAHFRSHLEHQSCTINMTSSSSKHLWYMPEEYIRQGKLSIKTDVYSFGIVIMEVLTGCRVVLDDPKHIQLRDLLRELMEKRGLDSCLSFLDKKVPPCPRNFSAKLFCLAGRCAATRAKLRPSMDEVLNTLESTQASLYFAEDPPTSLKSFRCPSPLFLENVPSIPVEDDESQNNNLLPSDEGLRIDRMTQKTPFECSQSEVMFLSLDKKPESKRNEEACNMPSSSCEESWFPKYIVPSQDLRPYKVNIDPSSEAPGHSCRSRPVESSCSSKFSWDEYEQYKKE
T6 sequence (P0C264 whole entry): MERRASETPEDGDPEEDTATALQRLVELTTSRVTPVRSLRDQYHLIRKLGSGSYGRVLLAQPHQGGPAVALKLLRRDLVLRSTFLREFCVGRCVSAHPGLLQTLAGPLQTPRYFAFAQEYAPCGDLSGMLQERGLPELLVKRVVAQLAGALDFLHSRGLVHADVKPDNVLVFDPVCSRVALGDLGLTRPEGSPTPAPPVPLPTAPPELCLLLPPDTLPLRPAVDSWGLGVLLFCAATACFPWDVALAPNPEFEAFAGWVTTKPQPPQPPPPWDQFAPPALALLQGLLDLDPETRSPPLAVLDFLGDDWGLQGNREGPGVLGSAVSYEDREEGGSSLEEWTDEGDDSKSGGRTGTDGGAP
Chain of PLK4 (O00444 whole entry): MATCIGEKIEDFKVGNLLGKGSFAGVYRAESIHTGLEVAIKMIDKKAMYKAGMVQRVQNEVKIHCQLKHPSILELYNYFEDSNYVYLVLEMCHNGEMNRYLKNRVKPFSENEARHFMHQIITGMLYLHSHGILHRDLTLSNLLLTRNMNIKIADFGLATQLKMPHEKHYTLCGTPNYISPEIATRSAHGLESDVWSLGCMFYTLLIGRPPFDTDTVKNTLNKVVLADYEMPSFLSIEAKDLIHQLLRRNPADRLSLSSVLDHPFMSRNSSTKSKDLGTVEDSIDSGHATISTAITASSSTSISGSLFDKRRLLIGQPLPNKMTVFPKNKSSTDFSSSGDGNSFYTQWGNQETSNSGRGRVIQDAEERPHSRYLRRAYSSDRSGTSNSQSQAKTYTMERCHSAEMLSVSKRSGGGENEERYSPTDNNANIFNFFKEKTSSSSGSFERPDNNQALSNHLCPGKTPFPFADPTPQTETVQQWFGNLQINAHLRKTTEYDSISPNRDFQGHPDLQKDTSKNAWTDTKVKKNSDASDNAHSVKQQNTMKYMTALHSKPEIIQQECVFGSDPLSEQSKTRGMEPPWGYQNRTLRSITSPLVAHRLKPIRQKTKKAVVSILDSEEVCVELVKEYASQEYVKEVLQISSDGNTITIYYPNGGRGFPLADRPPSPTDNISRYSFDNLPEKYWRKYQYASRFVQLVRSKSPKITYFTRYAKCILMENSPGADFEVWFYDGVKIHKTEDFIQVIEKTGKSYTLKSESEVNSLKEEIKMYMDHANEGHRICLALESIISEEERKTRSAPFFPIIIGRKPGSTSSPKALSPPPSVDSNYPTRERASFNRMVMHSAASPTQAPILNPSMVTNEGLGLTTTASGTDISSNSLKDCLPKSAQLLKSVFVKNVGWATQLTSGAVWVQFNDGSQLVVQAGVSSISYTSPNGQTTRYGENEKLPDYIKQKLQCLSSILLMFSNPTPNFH
Chain of PRKCQ (Q04759 whole entry): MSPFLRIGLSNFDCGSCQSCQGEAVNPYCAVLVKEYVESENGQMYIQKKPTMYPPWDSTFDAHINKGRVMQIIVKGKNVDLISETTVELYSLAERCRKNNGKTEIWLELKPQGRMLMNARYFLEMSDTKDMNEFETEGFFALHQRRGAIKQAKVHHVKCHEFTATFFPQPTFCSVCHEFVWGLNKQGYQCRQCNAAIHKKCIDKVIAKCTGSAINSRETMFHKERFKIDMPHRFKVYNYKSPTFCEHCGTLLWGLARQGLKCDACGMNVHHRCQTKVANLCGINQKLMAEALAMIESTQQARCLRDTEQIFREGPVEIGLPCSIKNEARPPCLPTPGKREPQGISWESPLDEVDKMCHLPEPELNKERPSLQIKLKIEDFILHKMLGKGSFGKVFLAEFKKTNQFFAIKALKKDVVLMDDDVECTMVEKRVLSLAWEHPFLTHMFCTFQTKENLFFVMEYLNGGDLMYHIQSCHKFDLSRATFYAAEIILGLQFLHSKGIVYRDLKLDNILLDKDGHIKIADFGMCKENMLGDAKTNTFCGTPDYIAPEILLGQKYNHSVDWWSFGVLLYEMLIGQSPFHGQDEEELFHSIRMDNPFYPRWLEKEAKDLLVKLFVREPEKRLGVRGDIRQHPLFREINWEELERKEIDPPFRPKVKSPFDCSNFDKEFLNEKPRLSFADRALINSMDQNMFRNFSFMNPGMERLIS
Chain of DAPK3 (O43293 whole entry): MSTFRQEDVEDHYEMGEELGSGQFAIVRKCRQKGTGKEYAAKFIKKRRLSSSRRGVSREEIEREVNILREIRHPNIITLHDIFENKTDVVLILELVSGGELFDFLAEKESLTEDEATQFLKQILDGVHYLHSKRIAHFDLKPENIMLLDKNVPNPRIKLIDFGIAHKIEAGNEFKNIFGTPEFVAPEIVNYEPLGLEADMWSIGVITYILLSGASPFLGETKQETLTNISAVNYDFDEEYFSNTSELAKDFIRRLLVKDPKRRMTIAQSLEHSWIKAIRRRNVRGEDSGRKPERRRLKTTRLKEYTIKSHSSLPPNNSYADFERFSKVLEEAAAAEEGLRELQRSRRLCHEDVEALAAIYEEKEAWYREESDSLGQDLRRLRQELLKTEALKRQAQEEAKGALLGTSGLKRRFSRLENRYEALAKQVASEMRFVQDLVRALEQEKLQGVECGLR
Chain of CAMK4 (Q16566 whole entry): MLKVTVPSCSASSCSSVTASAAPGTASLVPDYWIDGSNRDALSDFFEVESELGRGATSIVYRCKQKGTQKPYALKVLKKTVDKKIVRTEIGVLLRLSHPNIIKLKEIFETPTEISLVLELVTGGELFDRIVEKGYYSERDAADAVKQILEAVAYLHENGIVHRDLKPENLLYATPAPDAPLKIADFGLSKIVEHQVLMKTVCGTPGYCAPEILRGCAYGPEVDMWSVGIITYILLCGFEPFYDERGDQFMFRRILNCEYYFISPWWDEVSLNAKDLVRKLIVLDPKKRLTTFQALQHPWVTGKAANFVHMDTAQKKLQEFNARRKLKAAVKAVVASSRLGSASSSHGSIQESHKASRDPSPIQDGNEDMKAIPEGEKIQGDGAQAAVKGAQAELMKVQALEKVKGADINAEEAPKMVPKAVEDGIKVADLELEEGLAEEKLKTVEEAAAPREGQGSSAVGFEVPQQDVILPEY

On to `C=CC(=O)Nc1cc(-n2c(=O)ccc3cnc4ccc(-n5cccn5)cc4c32)ccc1C` [CHMFL-BTK-11], for which the remaining binding at 1 µM at LRRK2(G2019S) was 95%; in assay [1], 100%; at CAMK4, 91%; at FLT3 it was 100%; on PLK4, 56%; at QSK, 92%. Besides, the remaining binding at 1 µM on RET(V804L) worked out at 97%; at ROCK1, 89%; on IRAK3 it was 98%; on DCAMKL3, 88%; in assay [2] it was 100%; at EGFR(L861Q) it was 71%. Further, the remaining binding at 1 µM turned out to be 100% on DAPK3; 98% on CIT; 100% at PRKCQ; 100% on DAPK2; 100% in assay [3]; 73% at NEK5. Moreover, the remaining binding at 1 µM on PKN1 came out at 100%; on SgK110 it was 90%; on EGFR(L858R), 70%; on RET(V804M), 100%; at MARK2 it was 92%; at BRAF(V600E), 100%.
